In PubChem BioAssay (NCI):
Values joined by “and” are separate entries in the source; they are usually repeats but may differ in a detail not shown here. Equal values may be shown once.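 Results reflect a 48-hour exposure of cells in 96-well plates to compound at five concentrations. GI50: concentration for 50% inhibition of growth. The concentration for full growth arrest is given as TGI.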

How the values were obtained:
Assay in all cases: growth of human tumour cells (NCI), 48 h
[1] = system: UACC-62 melanoma
[2] = system: ACHN renal
[3] = system: LOX IMVI melanoma
[4] = system: UO-31 renal
[5] = system: HOP-92 NSCLC
[6] = system: SW-620 colon
[7] = system: SK-OV-3 ovarian
[8] = system: MALME-3M melanoma
[9] = system: SF-539 CNS
[10] = system: SK-MEL-2 melanoma

| SMILES | GI50 [1] [µM] | TGI [1] | GI50 [2] [µM] | TGI [2] | GI50 [3] [µM] | TGI [3] | GI50 [4] [µM] | TGI [4] | GI50 [5] [µM] | TGI [5] | GI50 [6] [µM] | TGI [6] | GI50 [7] [µM] | TGI [7] | GI50 [8] [µM] | TGI [8] | GI50 [9] [µM] | TGI [9] | GI50 [10] [µM] | TGI [10] |
| --- | --- | --- | --- | --- | --- | --- | --- | --- | --- | --- | --- | --- | --- | --- | --- | --- | --- | --- | --- | --- |
| COc1ccc(CNC(=O)c2ccc(-c3cc(-c4nnc(C)o4)ccc3C)cc2)cc1 | 11.1 | > 25 µM | 16.3 | > 25 µM | > 25 | > 25 µM | 6.03 | > 25 µM | 2.11 | > 25 µM | > 25 | > 25 µM | > 25 | > 25 µM | 5.37 | > 25 µM | > 25 | > 25 µM | > 25 | > 25 µM |
| O=C(Nc1nc2ccc(F)cc2s1)c1cccnc1Nc1ccc(Cl)cc1Cl | 2.57 | 17.2 µM | 3.35 | 13.7 µM | 3.62 | 14.6 µM | 2.21 | > 24.4 µM | 1.4 | 5.15 µM | 3.04 | 15.1 µM | 2.26 | 7.38 µM | 2.19 | 12.1 µM | 4.15 | 15.3 µM | 3.3 | > 26.2 µM |
| CCCC/C=C1\CCC(CN2CCCC2)C1=O (configuration not stated) | – | 31.2 µM | – | 19.2 µM | – | 21.7 µM | – | 32.3 µM | – | 31.1 µM | – | 4.9 µM | – | 97.1 µM | – | 33.1 µM | – | 29.8 µM | – | 29.8 µM |
| Cc1ccc(-c2cc(C(Cl)Cl)on2)cc1 | 66.8 | > 100 µM | 33.5 | > 100 µM | 41.1 | > 100 µM | 49.5 | > 100 µM | 33.5 | > 100 µM | 67.5 | > 100 µM | > 100 | > 100 µM | > 100 | > 100 µM | > 100 | > 100 µM | > 100 | > 100 µM |
| CCCC(=O)Nc1cn(COC)c(C(=O)N2C[C@H]3C[C@@]34C2=CC(=O)c2[nH]cc(C)c24)n1 | – | 14.5 µM and 26.1 µM | – | 50 µM and > 100 µM | 3.13 | 35.4 µM and > 100 µM | 3.47 | 28.1 µM and 73.1 µM | 5.12 | 26.8 µM and 31.4 µM | 13.4 | 50 µM and > 100 µM | 26.7 | 50 µM and > 100 µM | 4.22 | 9.45 µM and 26 µM | 1.87 | 37.7 µM and 38.4 µM | 7.39 | 50 µM and > 100 µM |
| O=c1ncccn1C1OC(CO)C(O)C1F (configuration not stated) | > 100 | > 100 µM | – | > 100 µM | – | > 100 µM | > 100 | > 100 µM | – | > 100 µM | > 100 | > 100 µM | – | > 100 µM | – | > 100 µM | > 100 | > 100 µM | – | > 100 µM |
| OCCN(CCO)c1ncnc2c1sc(=S)n2-c1ccccc1 | – | > 100 µM | – | > 100 µM | – | > 100 µM | – | > 100 µM | – | > 100 µM | – | > 100 µM | – | > 100 µM | – | > 100 µM | – | > 100 µM | – | > 100 µM |
| O=c1/c(=C/c2ccc3c(c2)OCO3)sc2nnc(Cc3ccccc3)n12 | – | > 100 µM | – | > 100 µM | – | > 100 µM | – | > 100 µM | – | > 100 µM | – | > 100 µM | – | > 100 µM | – | > 100 µM | – | > 100 µM | – | > 100 µM |
